Common to all, as to type: cell-based
Test [1] has as its system human keratinocytes. The experiment in a line: Protecting cells against UVB radiation (cell DNA, LDH and PGE2 release). Conditions: + UV-B 50 mJ/cm^2; for Cell DNA: blank = 100, control + UV-B = 33; for LDH released / PGE2 released: control + UV-B = 100. On the procedure: UVB was selected as the stress factor because the rays produce cutaneous inflammation (erythemas, oedemas) by activating enzymes that release arachidonic acid, such as phospholipase A2 (PLA2) for example. […] The influence of UVB rays on keratinocytes was determined in vitro through the release of cytoplasmatic enzymes, such as LDH (lactate dehydrogenase) for example, which runs parallel to the cell damage and the formation of PGE2. […] The quantity of keratinocytes was determined after trypsination via a cell counter while the LDH concentration was enzymatically determined. The results are set out in Table 4, where they are expressed as the activity in %-rel. against a standard, and represent the mean value of two test series involving double determination.
Background: Release of lactate dehydrogenase indicates damage to the cell membrane.

Test [2] relates to melanocytes (B16 cell line). The experiment in a line: Inhibition of melanin synthesis in B16 melanocytes. Conditions: 3 days, blank value = 100. The protocol: Melanin is the pigment responsible for the color of the skin and hair. It is formed in special organelles, the melanosomes, which occur in the melanocytes of the basal layer of the human epidermis. The biosynthesis of melanin begins with the amino acid tyrosine which is oxidized to DOPA (dihydroxyphenylalanine) in the presence of tyrosinase. The DOPA then polymerizes to melanin. […] After incubation for 3 days at 37° C./5% CO2, the nutrient medium was replaced by a solution containing the test substances in various concentrations. After incubation for another 3 days, the cell protein content (Bradford's method) and the content of synthesized melanin were determined through the optical density of the homogenizate at 475 nm. The results are expressed in % against a blank value and are set out in Table 7.

For test [3], the system named is human keratinocytes. The experiment in a line: Growth inhibition on human keratinocytes with EGF. As to conditions: with EGF 10 ng/ml, 3 days, control = 100, control with EGF = 167. The protocol: Increased proliferation and differentiation of keratinocytes of the hair matrix leads to improved longer hair growth. The following test was carried out to determine the potential of the sugar esters for inhibiting hair growth which is visibly reflected in a reduction in the proliferation of human keratinocyte culture in vitro.
To this end, human keratinocytes were cultivated in a standard cell culture medium containing foetal calf serum (FCS). After incubation for 1 day at 37° C./5% CO2, the growth medium was replaced by standard medium containing 10 ng/ml epidermal growth factor (EGF) and various concentrations of sugar esters dissolved in ethanol (1% by volume).
After incubation for three days, the number of living cells was determined by determining the cell protein content by the Bradford method [Bradford, M. M., A rapid and sensitive method for the quantitation of microgram quantities of protein utilizing the principle of protein-dye binding. Anal. Biochem. (1977), Vol. 72, pp. 248-254].
The results of Table 8 represent the values of triple determinations on two batches expressed in % against a control of cell culture medium without sugar ester.

In another test the test system is human hair follicles. The experiment in a line: Inhibition of hair growth, in vitro cultivated hair follicles. Conditions: conc. 0.01 % w/v. The protocol: The hair-growth-inhibiting effect of the sugar esters was determined by a method using in vitro cultivated human hair follicles in a growth medium. The growth of the hair follicles was tested in the presence and absence of fructose caprate. To this end, the hair follicles were incubated for 7 days at 37° C./5% CO2. The length of the cultivated hair follicles was recorded after 3 days and 7 days of cultivation. In a comparison example, the growth medium additionally contained 30 ng/ml IGF-1 insulin-like growth factor), a cytokine which stimulates hair follicle growth.
Each of the tests was carried out with 10 hair follicles of a donor (5 donors in all).
The results are set out in Table 9 and represent the mean values of the 50 hair follicles.

A further test deals with Propionibacterium acnes. The test is described as follows: Agar diffusion method, inhibition zones. As to conditions: filter paper with 20 μl test substance; 18 to 24 h at 37° C., anaerobic. The protocol:
(§1) The antibacterial activity of the test substances was tested by the diffusion method on agar plates or the agar dilution method. In this method, a round filter paper of defined diameter is first impregnated with the test solution and then applied to the surface of an agar plate inoculated beforehand with the test microorganisms. The size of the inhibition zones is then determined after defined times. In particular, it is possible by this method to determine the MIC (Minimum Inhibitory Concentration) as the lowest concentration of test substance with which complete inhibition of the microorganisms can be obtained.
(§2) Agar diffusion method. The inoculum was prepared using a fresh culture in a stationary growth phase (after ca. 18-24 h) in a BHI solution (brain-heart Infusion). The bacterial suspension was adjusted to 0.5 MacFarland units, corresponding to 1.5 10^8 colony-forming units (cfu)/ml; the suspension was then diluted with a sodium chloride solution (1:100) to adjust a value of 1.5 10^6 cfu/ml. Mueller-Hinton agar (Staphylococcus epidermidis, Staphylococcus aureus) and Wilkins-Chalgrens agar containing 5% by weight sheep's blood (Propionibacterium acnes) were then sterilized for 15 mins. at 121° C. and then placed in Petri dishes. 2 to 4 ml of the bacterial suspension were then added to the Petri dishes, followed by drying at room temperature. The filter papers were impregnated with 20 μl of the test substances and applied to the surface of the agar plates. The inoculated Petri dishes were incubated for 18 to 24 h at 37° C. (the Petri dishes containing Propionibacterium acnes under anaerobic conditions) and the antimicrobial activity was then determined by determination of the growth inhibition zones. The results are set out in Table 10 and represent the diameters of the inhibition zones in mm.
(In general: A growth-free zone around the sample is the usual read-out of agar diffusion tests.)

The subject of the next test is Staphylococcus aureus. The experiment in a line: Agar diffusion method, inhibition zones. As to conditions: filter paper with 20 μl test substance; 18 to 24 h at 37° C. The protocol:
as §1, §2

For test [4], the system named is Staphylococcus epidermidis. The test is described as follows: Agar diffusion method, inhibition zones. Conditions: filter paper with 20 μl test substance; 18 to 24 h at 37° C. The protocol:
as §1, §2

Turning to Fructose caprate, the “Cell DNA” value with human keratinocytes [1] (conc. 0.001 % w/v) amounted to 32 %-rel; with human keratinocytes [1] (conc. 0.003 % w/v), 140 %-rel. Also, the LDH released was 68 %-rel with human keratinocytes [1] (conc. 0.001 % w/v) and 0 %-rel in the test with human keratinocytes [1] (conc. 0.003 % w/v). Further, the PGE2 released with human keratinocytes [1] (conc. 0.001 % w/v) is recorded as 35 %-rel; in the test on human keratinocytes [1] (conc. 0.003 % w/v) it was 0 %-rel. Besides, the Cell melanin in test [2] (conc. 0.003 % w/v) is 54 %-rel; in test [2] (conc. 0.006 % w/v) it was 30 %-rel. In addition, the Cell proteins was 108 %-rel in test [2] (conc. 0.003 % w/v) and 80 %-rel in test [2] (conc. 0.006 % w/v). For the same substance, the “Cell protein content in %” value is listed as 163% in the test on human keratinocytes [3] (conc. 0.001 % w/v), 130% in the test on human keratinocytes [3] (conc. 0.003 % w/v) and 45% in the test on human keratinocytes [3] (conc. 0.01 % w/v). For the same substance, the “Hair follicle growth, increase Day 3/day 0” value was “+15%” in the test on human hair follicles (+ IGF (30 ng/ml IGF-1), control +21%) and “+12%” in the test on human hair follicles (without IGF, control +15%). For the same substance, the “Hair follicle growth, increase Day 7/day 0” value in the test on human hair follicles (+ IGF (30 ng/ml IGF-1), control +45%) is reported as “+25%”; in the test on human hair follicles (without IGF, control +32%), “+21%”. Further, the “Inhibition zones, Propionibacterium acnes” value in the test on Propionibacterium acnes is 14 mm. In addition, the “Inhibition zones, Staphylococcus aureus” value with Staphylococcus aureus was found to be 10 mm. Moreover, the “Inhibition zones, Staphylococcus epidermidis” value in test [4] is on record as 9 mm.

Source of the values: patent publication US20050220726A1, “Use of sugar esters in cosmetic and/or pharmaceutical preparations” (priority 2003, published 2005).
